The target of assay [1] is T1, glucosylceramide synthase (GCS) (Homo sapiens, UniProt Q16739).
T1 construct: The obtained supernatant was used; host or cells: A549 cells (lysate supernatant after sonication)
T1 sequence (Q16739 1-394): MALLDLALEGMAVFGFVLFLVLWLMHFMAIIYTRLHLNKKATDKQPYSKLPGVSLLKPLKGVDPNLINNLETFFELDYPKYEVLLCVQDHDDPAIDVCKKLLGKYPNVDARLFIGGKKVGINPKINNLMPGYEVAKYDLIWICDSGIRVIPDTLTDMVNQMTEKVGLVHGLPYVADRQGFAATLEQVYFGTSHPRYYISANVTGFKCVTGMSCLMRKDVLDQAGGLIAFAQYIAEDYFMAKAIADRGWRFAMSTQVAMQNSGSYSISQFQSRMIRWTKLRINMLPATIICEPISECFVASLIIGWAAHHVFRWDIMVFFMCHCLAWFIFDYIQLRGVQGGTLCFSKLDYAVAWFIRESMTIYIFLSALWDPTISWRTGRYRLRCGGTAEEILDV
Nature of the assay: GCS enzyme inhibition assay (A549 cell lysate, NBD C6-ceramide, HPLC fluorescence). The assay is classed as biochemical. Conditions: inhibitory activity against GCS, 37° C., 90 minutes. Put shortly:
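Percent GCS activity was derived from the GlcCer share of Cer plus GlcCer areas, scaled from ibiglustat (0%) to DMSO (100%). Enzyme came from sonicated A549 lysate in 50 mM HEPES pH 7.3; 90 min incubation at 37° C, chloroform/methanol stop and extraction.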

Assay [2] concerns GM1 production in Jurkat cells. Nature of the assay: cells. The assay is classed as cell-based. Conditions: Homo sapiens, Jurkat, 72 h.

As to `CC1(C)COc2cc(-c3ccc(F)cc3F)ccc2C1NC(=O)O[C@@H]1CN2CCC1CC2` (stereo partly drawn) [Example 233, (S)-quinuclidin-3-yl (7-(2,4-difluorophenyl)-3,3-dimethylchroman-4-yl)carbamate], the IC50 in assay [1] was found to be 0.49 nM; in assay [2] it was 3 nM.

In the case of `CC1(C)COc2cc(-c3cc(F)ccc3F)ccc2C1NC(=O)O[C@@H]1CN2CCC1CC2` (stereo partly drawn) [Example 234, (S)-quinuclidin-3-yl (7-(2,5-difluorophenyl)-3,3-dimethylchroman-4-yl)carbamate], the IC50 in assay [1] is 0.4 nM; in assay [2], 1.1 nM.

For the compound `CC1(C)COc2cc(-c3cccc(Cl)c3Cl)ccc2C1NC(=O)O[C@@H]1CN2CCC1CC2` (stereo partly drawn) [Example 235, (S)-quinuclidin-3-yl (7-(2,3-dichlorophenyl)-3,3-dimethylchroman-4-yl)carbamate], the IC50 stood at 0.75 nM in assay [1] and 7.1 nM in assay [2].

In the case of `CC1(C)COc2cc(-c3ccc(F)c(Cl)c3)ccc2C1NC(=O)O[C@@H]1CN2CCC1CC2` (stereo partly drawn) [Example 236, (S)-quinuclidin-3-yl (7-(3-chloro-4-fluorophenyl)-3,3-dimethylchroman-4-yl)carbamate], the IC50 turned out to be 0.75 nM in assay [1] and 3.6 nM in assay [2].

In the case of `CC1(C)COc2cc(-c3cccc(F)c3Cl)ccc2C1NC(=O)O[C@@H]1CN2CCC1CC2` (stereo partly drawn) [Example 237, (S)-quinuclidin-3-yl (7-(2-chloro-3-fluorophenyl)-3,3-dimethylchroman-4-yl)carbamate], the IC50 amounted to 0.63 nM in assay [1] and 5.1 nM in assay [2].

With `CC1(C)COc2cc(-c3ccc(F)c(F)c3)ccc2C1NC(=O)O[C@@H]1CN2CCC1CC2` (stereo partly drawn) [Example 238, (S)-quinuclidin-3-yl (7-(3,4-difluorophenyl)-3,3-dimethylchroman-4-yl)carbamate], the IC50 was 0.47 nM in assay [1] and 5.9 nM in assay [2].

As for `CC1(C)COc2cc(-c3cccc(F)c3F)ccc2C1NC(=O)O[C@@H]1CN2CCC1CC2` (stereo partly drawn) [Example 239, (S)-quinuclidin-3-yl (7-(2,3-difluorophenyl)-3,3-dimethylchroman-4-yl)carbamate], the IC50 worked out at 0.47 nM in assay [1] and 4.8 nM in assay [2].

Take `CC1(C)COc2cc(-c3cc(F)cc(F)c3)ccc2C1NC(=O)O[C@@H]1CN2CCC1CC2` (stereo partly drawn) [Example 240, (S)-quinuclidin-3-yl (7-(3,5-difluorophenyl)-3,3-dimethylchroman-4-yl)carbamate]: the values for the IC50 in assay [1] and in assay [2] were 0.92 nM and 5 nM, respectively.

In the case of `COc1ccc(-c2ccc3c(c2)OCC(C)(C)C3NC(=O)O[C@@H]2CN3CCC2CC3)cn1` (stereo partly drawn) [Example 241, (S)-quinuclidin-3-yl (7-(6-methoxypyridin-3-yl)-3,3-dimethylchroman-4-yl)carbamate], the values for the IC50 in assay [1] and in assay [2] were 0.81 nM and 24.1 nM, respectively.

`CC1(C)COc2cc(-c3ccc(-c4ccccc4)cc3)ccc2C1NC(=O)O[C@@H]1CN2CCC1CC2` (stereo partly drawn) [Example 242, (S)-quinuclidin-3-yl (7-([1,1′-biphenyl]-4-yl)-3,3-dimethylchroman-4-yl)carbamate]: the values for the IC50 in assay [1] and in assay [2] were 0.53 nM and 3.8 nM, respectively.

Turning to `CC1(C)COc2cc(-c3cncs3)ccc2C1NC(=O)O[C@@H]1CN2CCC1CC2` (stereo partly drawn) [Example 243, (S)-quinuclidin-3-yl (3,3-dimethyl-7-(thiazol-5-yl)chroman-4-yl)carbamate], the figures for the IC50 in assay [1] and in assay [2] were 1.9 nM and 24.1 nM, respectively.

`C=Cc1cccc(-c2ccc3c(c2)OCC(C)(C)C3NC(=O)O[C@@H]2CN3CCC2CC3)c1` (stereo partly drawn) [Example 244, (S)-quinuclidin-3-yl (3,3-dimethyl-7-(3-vinylphenyl)chroman-4-yl)carbamate]: the results for the IC50 in assay [1] and in assay [2] were 0.42 nM and 0.6 nM, respectively.

As to `COc1ncccc1-c1ccc2c(c1)OCC(C)(C)C2NC(=O)O[C@@H]1CN2CCC1CC2` (stereo partly drawn) [Example 245, (S)-quinuclidin-3-yl (7-(2-methoxypyridin-3-yl)-3,3-dimethylchroman-4-yl)carbamate], the results for the IC50 in assay [1] and in assay [2] were 0.95 nM and 4.7 nM, respectively.

Broadly, the IC50 is the concentration that inhibits the measured activity by half.

The values are drawn from US12673944B2, “Compounds having inhibitory activity against glucosylceramide synthase or pharmaceutically acceptable salt thereof, processes for preparing the same, and pharmaceutical compositions comprising the same” (YUHAN CORPORATION, priority 2019, dated 2026).
